Legend:
Hexane solubility = assay type: physicochemical; settings: stirred 1 hour, naked eye; for Hexane solubility 43 g: 43 g sample in 100 g n-hexane at 23° C.; for Hexane solubility 100 g: 100 g sample in 100 g n-hexane at 23° C.
Procedure: The samples in an amount as shown in Table 1 were added into 100 g of n-hexane at 23° C., and the mixture was stirred for 1 hour, and thereafter the state was evaluated with naked eyes on the basis of following criteria.
(Criteria for Evaluation)
S; Completely dissolved, C; Dissolved, but insoluble materials remained, and I.S.; Substantially not dissolved.

[1] = Weight reducing temperature at heating (heat resistance, TG-DTA); assay type: physicochemical; settings: heated at 5° C./minutes under nitrogen
Procedure: The sample was heated at 5° C./minutes under nitrogen, and measured by means of TG8120 type TG-DTA device manufactured by Rigaku Corporation.

SMILES	Hexane solubility 43 g (Hexane solubility)	Hexane solubility 100 g (Hexane solubility)	Heat resistance 1% by weight reducing temperature [1]	Heat resistance 5% by weight reducing temperature [1]	Hexane solubility 25 g (Hexane solubility; 25 g sample in 100 g n-hexane at 23° C.)
CCCCCCCCCCCCNc1nc(N(CCCC)C2CC(C)(C)N(C)C(C)(C)C2)nc(N(CCCC)C2CC(C)(C)N(C)C(C)(C)C2)n1 [Exemplary compound 1, N,N′-dibutyl-,N″-lauryl-N,N′-bis-(1,2,2,6,6-pentamethyl-4-piperidin-4-yl)-[1,3,5]-triazine-2,4,6-triamine]	S	S	271.6 °C	333.4 °C	
CCCCCCCCCCCCNc1nc(N(CCCCCCCCCCCC)C2CC(C)(C)NC(C)(C)C2)nc(N(CCCCCCCCCCCC)C2CC(C)(C)NC(C)(C)C2)n1 [Exemplary compound 2, N,N′,N″-trilauryl-N,N′-bis-(2,2,6,6-tetramethylpiperidin-4-yl)-[1,3,5]-triazine-2,4,6-triamine]	S	S	292.9 °C	366.7 °C	
CCCCCCCCCCCCN(c1nc(N(CCCCCCCCCCCC)C2CC(C)(C)NC(C)(C)C2)nc(N(CCCCCCCCCCCC)C2CC(C)(C)NC(C)(C)C2)n1)C1CC(C)(C)NC(C)(C)C1 [Exemplary compound 3, N,N′,N″-trilauryl-N,N′,N″-tris(2,2,6,6-tetramethyl-4-piperidin-4-yl)-[1,3,5]-triazine-2,4,6-triamine]	S	S	246.2 °C	377.1 °C	
CCCCCCCCCCCCN(CCCNc1nc(N(CCCC)C2CC(C)(C)N(C)C(C)(C)C2)nc(N(CCCC)C2CC(C)(C)N(C)C(C)(C)C2)n1)CCCNc1nc(N(CCCC)C2CC(C)(C)N(C)C(C)(C)C2)nc(N(CCCC)C2CC(C)(C)N(C)C(C)(C)C2)n1 [Exemplary compound 4]	S	S	292.7 °C	357.2 °C	
CCCCCCCCCCCCNC1CC(C)(C)NC(C)(C)C1 [Exemplary compound 5, N-dodecyl-2,2,6,6-tetramethyl piperidine-4-amine]	S	S	103.3 °C	188.1 °C	
CCCCN(c1nc(N(CCCC)C2CC(C)(C)N(C)C(C)(C)C2)nc(N(CCCC)C2CC(C)(C)N(C)C(C)(C)C2)n1)C1CC(C)(C)N(C)C(C)(C)C1 [Exemplary compound 6, N,N′,N″-tributyl-N,N′,N″-tris-(1,2,2,6,6-pentamethyl-4-piperidinyl)-[1,3,5]-triazine-2,4,6-triamine]	S	S	250.7 °C	320.2 °C	
CCCCCCCCN(c1nc(N(CCCCCCCC)C2CC(C)(C)N(C)C(C)(C)C2)nc(N(CCCCCCCC)C2CC(C)(C)N(C)C(C)(C)C2)n1)C1CC(C)(C)N(C)C(C)(C)C1 [Exemplary compound 7, N,N′,N″-trioctyl-N,N′,N″-tris-(1,2,2,6,6-pentamethyl-4-piperidinyl)-[1,3,5]-triazine-2,4,6-triamine]	S	S	291.5 °C	340.1 °C	
CCCCCCCCCCCCN(c1nc(N(CCCCCCCCCCCC)C2CC(C)(C)N(C)C(C)(C)C2)nc(N(CCCCCCCCCCCC)C2CC(C)(C)N(C)C(C)(C)C2)n1)C1CC(C)(C)N(C)C(C)(C)C1 [Exemplary compound 8, N,N′,N″-tridodecyl-N,N′,N″-tris-(1,2,2,6,6-pentamethyl-4-piperidinyl)-[1,3,5]-triazine-2,4,6-triamine]	S	S	330.1 °C	378.2 °C	
CCCCCCCCCCCCNc1nc(N(CCCC)C2CC(C)(C)NC(C)(C)C2)nc(N(CCCC)C2CC(C)(C)NC(C)(C)C2)n1 [Exemplary compound 9, N,N′-dibutyl-N″-dodecyl-N,N′-bis(2,2,6,6-tetramethyl-4-piperidyl)-1,3,5-triazine-2,4,6-triamine]	S				
CCCCNc1nc(N(CCCC)C2CC(C)(C)NC(C)(C)C2)nc(N(CCCC)C2CC(C)(C)NC(C)(C)C2)n1 [Exemplary compound 10, N,N′,N″-tributyl-N,N′-bis(2,2,6,6-tetramethyl-4-piperidyl)-1,3,5-triazine-2,4,6-triamine]	S				

More lines, now with the values ahead:

Hexane solubility 43 g (Hexane solubility)	Hexane solubility 100 g (Hexane solubility)	Heat resistance 1% by weight reducing temperature [1]	Heat resistance 5% by weight reducing temperature [1]	Hexane solubility 25 g (Hexane solubility; 25 g sample in 100 g n-hexane at 23° C.)	SMILES
S	S				CCCCN(CCCC)c1nc(N(CCCC)C2CC(C)(C)NC(C)(C)C2)nc(N(CCCC)C2CC(C)(C)NC(C)(C)C2)n1 [Exemplary compound 11, N,N′,N″,N″-tetrabutyl-N,N′-bis(2,2,6,6-tetramethyl-4-piperidyl)-1,3,5-triazine-2,4,6-triamine]
S	S				CCCCCCCCN(CCCCCCCC)c1nc(N(CCCC)C2CC(C)(C)NC(C)(C)C2)nc(N(CCCC)C2CC(C)(C)NC(C)(C)C2)n1 [Exemplary compound 12, N,N′-dibutyl-N,N′-bis(2,2,6,6-tetramethyl-4-piperidyl)-N″, N″-dioctyl-1,3,5-triazine-2,4,6-triamine]
S	S				CCCCCCCCCCCCNc1nc(N(CCCCCCCC)C2CC(C)(C)N(C)C(C)(C)C2)nc(N(CCCCCCCC)C2CC(C)(C)N(C)C(C)(C)C2)n1 [Exemplary compound 13, N-dodecyl-N′,N″-bis(1,2,2,6,6-pentamethyl-4-piperidyl)-N′,N″-dioctyl-1,3,5-triazine-2,4,6-triamine]
S	S				CCCCCCCCCCCCN(c1nc(NCCCC)nc(N(CCCCCCCCCCCC)C2CC(C)(C)NC(C)(C)C2)n1)C1CC(C)(C)NC(C)(C)C1 [Exemplary compound 14, N-butyl-N′,N″-didodecyl-N′,N″-bis(2,2,6,6-tetramethyl-4-piperidyl)-1,3,5-triazine-2,4,6-triamine]
		207.4 °C	248.4 °C	I.S.	CC1(C)CC(OC(=O)CCCCCCCCC(=O)OC2CC(C)(C)NC(C)(C)C2)CC(C)(C)N1 [TINUVIN 770]

Source: patent US20100074083A1, “RESIN COMPOSITION AND MOLDED PRODUCT OBTAINED BY MOLDING THE RESIN COMPOSITION” (MITSUI CHEMICALS, INC., priority 2006, published 2010)
